What was measured:
[1] = target: DNA-aptamer for vancomycin; experiment: Titration curve of vancomycin EAB sensor by square-wave voltammetry, dissociation constant of the aptamer; assay type: binding
Method: Each combination of electrode/matrix was electrochemically interrogated via square-wave voltammetry to obtain two set of data: • A frequency map, where the signal-on and signal-off frequencies were determined for a particular amplitude. • A titration curve, where the sensor is interrogated at several concentrations of vancomycin by using the optimal signal-on frequency (responsible for the sensing event).
The titration curve also allowed determination of the dissociation constant of the aptamer in the employed matrix.
• Estart=between −0.5 and −0.4 V • Efinal=between −0.2 and −0.1 V • Eref=Ag|AgCl
• fix A=optimal amplitude (25 mV for vancomycin-in-vitro) • scan f=optimal signal-on value (between 80 and 100 Hz) and signal-off value (lower than 15 Hz)
Reference is made to FIG. 13 showing response of a vancomycin sensitive microelectrode (d=340 μm) in (i) human serum and (artificial ISF including BSA, and globulin as described above). The following equation describes an isotherm that represents the response of the sensing layer to the presence of different concentrations of vancomycin.
Reference is made to FIG. 17, showing data comparing the use of two different mathematical approaches for obtaining KD, which generated consisting fitting.

[2] = Human study: vancomycin in ISF by wearable EAB sensor vs serum; assay type: in vivo; details: healthy participants, single intravenous infusion 1 gram over 1 hour 40 minutes, ISF measured every 5 minutes
Method: These human studies followed vancomycin levels using an EAB sensor (which may also be referred to as the “device”). The device was a self-contained wearable EAB sensor, constructed, having an on-board power supply, electrodes, and electronics, including a microprocessor and BlueTooth™ communications module.
A vancomycin-sensitive EAB sensor was placed onto the participant's upper arm (see FIG. 20), opposite the arm where vancomycin was being infused. The time of device application was recorded. The device was applied 30 minutes (+15 minutes) prior to administering the vancomycin infusion and the device was removed up to 10 hours post-cessation of the infusion.
30 minutes (+15 minutes) post-application of the device, the participant received a single dose of vancomycin as an intravenous infusion (1 gram over 1 hour 40 minutes). The time of administration and completion of infusion was recorded. […]
Square Wave Voltammetry (SWV) was used to interrogate the DNA-based sensor electrodes. […] Use the determined peak currents magnitudes obtained at two different SWV interrogation frequencies (in this case 50 Hz and 300 Hz), when no vancomycin is present and when it is present to calculate an analyte concentration responsive signal(S). • 4. […]

CN[C@H](CC(C)C)C(=O)N[C@H]1C(=O)N[C@@H](CC(N)=O)C(=O)N[C@H]2C(=O)N[C@H]3C(=O)N[C@H](C(=O)N[C@H](C(=O)O)c4cc(O)cc(O)c4-c4cc3ccc4O)[C@H](O)c3ccc(c(Cl)c3)Oc3cc2cc(c3O[C@@H]2O[C@H](CO)[C@@H](O)[C@H](O)[C@H]2O[C@H]2C[C@](C)(N)[C@H](O)[C@H](C)O2)Oc2ccc(cc2Cl)[C@H]1O [vancomycin]
KD ([1]; human serum, smaller sensing area (microelectrode d=170 μm), two mathematical approaches): preserved | KD (the dissociation constant of the DNA aptamer) ([1]; microelectrode d=340 μm, synthetic interstitial fluid containing proteins compared with human serum): similar | vancomycin in the ISF compartment (ISF vs blood) [2]: high variation

— patent US20250303062A1, “Methods for controlling drug administration” (NUTROMICS […] LTD, priority 2022, published 2025)
